Laboratory results published in patent US20260021103A1, “IKZF2 AND CK1-ALPHA DEGRADING COMPOUNDS AND USES THEREOF” (President and Fellows of Harvard College, priority 2022, published 2026).
Values belong to the compound of their own block, whether it stands above or below them.

What was measured:
[1] = target: T1, IKZF1 (Homo sapiens, UniProt Q13422+Q96SW2); assay: Flow cytometry for measuring degradation, HEK293T GFP-POI reporter cells (IKZF1); assay type: cell-based; settings: for IKZF1% degradation at 100 nM / IKZF1% degradation at 1 μM: 24 h, HEK293T GFP reporter; for Dmax: HEK-293T
T1 construct: expressed in transfected cells; host or cells: HEK293T (lentiviral transduction, puromycin selection, FACS sorting)

[2] = target: T2, IKZF2 (Homo sapiens, UniProt Q96SW2+Q9UKS7); assay: Flow cytometry for measuring degradation, HEK293T GFP-POI reporter cells (IKZF2); assay type: cell-based; settings: for IKZF2% degradation at 100 nM / IKZF2% degradation at 1 μM: 24 h, HEK293T GFP reporter; for Dmax: HEK-293T; for Dmax / DC50: Table 3
T2 construct: expressed in transfected cells; host or cells: HEK293T (lentiviral transduction, puromycin selection, FACS sorting)

[3] = target: T3, CK1α (Homo sapiens, UniProt P48729+Q96SW2); assay: Flow cytometry for measuring degradation, HEK293T GFP-POI reporter cells (CK1α); assay type: cell-based; settings: for CK1α % degradation at 100 nM / CK1α % degradation at 1 μM: 24 h, HEK293T GFP reporter; for Dmax: CK1, read-out: Dmax CK1a (%); for Dmax / DC50: Table 3; for DC50: read-out: DC50 CK1a
T3 construct: expressed in transfected cells; host or cells: HEK293T (lentiviral transduction, puromycin selection, FACS sorting)

[4] = system: CK1α and/or IKZF2; assay: Panel of reporter cell lines (HEK293T cells expressing protein tagged with eGFP), substrate scope; assay type: cell-based; settings: 100 nM or 1 μM
[5] = target: GSPT1 (Homo sapiens, UniProt P15170+Q96SW2); assay: Flow cytometry for measuring degradation, HEK293T GFP-POI reporter cells (GSPT1); assay type: cell-based; design: expressed in transfected cells; host or cells: HEK293T; settings: for GSPT1% degradation at 100 nM / GSPT1% degradation at 1 μM: 24 h, HEK293T GFP reporter; for Dmax: HEK-293T
[6] = In vitro solubility in DMSO; assay type: physicochemical; settings: DMSO, organic solvent or mixture

T3 sequence (P48729 whole entry): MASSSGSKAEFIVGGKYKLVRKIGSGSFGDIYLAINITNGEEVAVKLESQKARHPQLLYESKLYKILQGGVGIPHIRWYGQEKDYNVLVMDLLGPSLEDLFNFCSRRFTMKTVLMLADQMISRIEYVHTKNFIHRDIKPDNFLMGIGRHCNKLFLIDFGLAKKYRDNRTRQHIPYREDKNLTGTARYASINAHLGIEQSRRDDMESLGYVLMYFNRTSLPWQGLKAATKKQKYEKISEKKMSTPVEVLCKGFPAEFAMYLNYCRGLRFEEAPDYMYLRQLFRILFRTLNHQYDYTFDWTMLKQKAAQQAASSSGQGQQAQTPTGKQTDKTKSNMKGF
T3 sequence (Q96SW2 whole entry): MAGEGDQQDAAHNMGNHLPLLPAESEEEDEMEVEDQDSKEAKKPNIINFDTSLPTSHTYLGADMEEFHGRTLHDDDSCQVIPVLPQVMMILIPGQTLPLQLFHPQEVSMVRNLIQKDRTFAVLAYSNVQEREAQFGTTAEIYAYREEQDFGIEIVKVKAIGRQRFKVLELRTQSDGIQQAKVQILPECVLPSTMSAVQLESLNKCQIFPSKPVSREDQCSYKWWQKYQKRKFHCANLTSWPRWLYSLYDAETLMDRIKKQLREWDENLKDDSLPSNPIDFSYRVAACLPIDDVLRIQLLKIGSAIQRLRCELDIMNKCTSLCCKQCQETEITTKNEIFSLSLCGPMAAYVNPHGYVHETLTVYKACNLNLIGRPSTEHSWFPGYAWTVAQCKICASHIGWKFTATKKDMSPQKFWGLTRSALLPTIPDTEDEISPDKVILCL
T3 sequence (Q16531 whole entry partner): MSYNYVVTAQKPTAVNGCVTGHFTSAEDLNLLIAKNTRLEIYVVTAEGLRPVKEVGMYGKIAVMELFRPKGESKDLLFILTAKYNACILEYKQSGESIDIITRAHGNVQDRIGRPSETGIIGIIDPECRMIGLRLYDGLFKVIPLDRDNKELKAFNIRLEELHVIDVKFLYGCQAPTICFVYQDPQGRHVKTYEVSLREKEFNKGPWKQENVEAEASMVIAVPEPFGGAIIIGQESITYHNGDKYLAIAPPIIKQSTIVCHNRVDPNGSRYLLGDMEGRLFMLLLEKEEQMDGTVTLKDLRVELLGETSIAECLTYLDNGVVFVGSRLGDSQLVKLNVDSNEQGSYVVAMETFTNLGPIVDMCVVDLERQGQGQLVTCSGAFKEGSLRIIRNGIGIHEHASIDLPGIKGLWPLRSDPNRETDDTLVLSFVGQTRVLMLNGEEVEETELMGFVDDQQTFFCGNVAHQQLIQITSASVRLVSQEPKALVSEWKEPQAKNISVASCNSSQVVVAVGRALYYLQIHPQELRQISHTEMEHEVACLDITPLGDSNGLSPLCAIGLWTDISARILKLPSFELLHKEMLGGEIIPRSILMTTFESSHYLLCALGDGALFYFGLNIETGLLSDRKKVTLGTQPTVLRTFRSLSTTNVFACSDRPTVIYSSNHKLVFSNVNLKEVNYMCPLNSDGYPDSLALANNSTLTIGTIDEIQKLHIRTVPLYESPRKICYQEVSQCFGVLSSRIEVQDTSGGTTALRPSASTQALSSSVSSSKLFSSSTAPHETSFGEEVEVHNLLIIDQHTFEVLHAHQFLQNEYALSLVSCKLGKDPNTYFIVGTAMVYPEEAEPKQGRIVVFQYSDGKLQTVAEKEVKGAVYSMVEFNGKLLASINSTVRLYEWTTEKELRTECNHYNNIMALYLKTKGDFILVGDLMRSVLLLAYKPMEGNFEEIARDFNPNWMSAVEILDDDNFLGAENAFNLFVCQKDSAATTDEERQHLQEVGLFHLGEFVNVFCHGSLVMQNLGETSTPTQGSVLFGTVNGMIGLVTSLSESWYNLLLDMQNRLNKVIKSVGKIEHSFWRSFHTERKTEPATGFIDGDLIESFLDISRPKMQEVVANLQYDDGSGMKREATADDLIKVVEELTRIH
T1 sequence (Q13422 whole entry): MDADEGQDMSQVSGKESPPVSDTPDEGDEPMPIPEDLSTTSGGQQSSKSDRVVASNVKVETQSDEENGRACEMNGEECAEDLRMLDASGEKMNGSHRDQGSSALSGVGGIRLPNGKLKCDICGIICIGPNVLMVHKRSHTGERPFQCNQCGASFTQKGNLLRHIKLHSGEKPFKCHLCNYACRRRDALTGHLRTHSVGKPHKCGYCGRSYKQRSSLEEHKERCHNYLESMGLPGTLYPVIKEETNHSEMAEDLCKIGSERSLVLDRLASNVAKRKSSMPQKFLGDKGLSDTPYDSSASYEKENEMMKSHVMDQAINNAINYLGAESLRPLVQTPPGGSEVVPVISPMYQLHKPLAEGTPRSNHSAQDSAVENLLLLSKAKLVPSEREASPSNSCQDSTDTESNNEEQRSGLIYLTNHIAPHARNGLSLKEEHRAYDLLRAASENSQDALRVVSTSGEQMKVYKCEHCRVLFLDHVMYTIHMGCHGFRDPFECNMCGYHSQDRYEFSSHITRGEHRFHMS
T1 sequence (Q96SW2 whole entry): as the sequence (Q96SW2 whole entry) above
T1 sequence (Q16531 whole entry partner): as the sequence (Q16531 whole entry partner) above
T2 sequence (Q9UKS7 whole entry): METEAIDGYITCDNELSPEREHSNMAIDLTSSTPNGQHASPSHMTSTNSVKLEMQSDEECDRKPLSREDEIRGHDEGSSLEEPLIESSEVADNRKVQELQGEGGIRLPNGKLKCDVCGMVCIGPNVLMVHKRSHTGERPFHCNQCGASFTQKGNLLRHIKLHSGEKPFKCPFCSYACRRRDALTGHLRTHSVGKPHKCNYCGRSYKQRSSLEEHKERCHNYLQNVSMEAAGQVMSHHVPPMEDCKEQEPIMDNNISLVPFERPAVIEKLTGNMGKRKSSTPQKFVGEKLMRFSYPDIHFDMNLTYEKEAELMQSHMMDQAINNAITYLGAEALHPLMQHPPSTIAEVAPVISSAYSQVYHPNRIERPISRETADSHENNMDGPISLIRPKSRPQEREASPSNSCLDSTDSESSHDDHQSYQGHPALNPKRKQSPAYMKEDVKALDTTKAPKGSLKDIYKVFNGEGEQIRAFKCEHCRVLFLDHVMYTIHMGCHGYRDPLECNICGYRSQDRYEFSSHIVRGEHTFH
T2 sequence (Q96SW2 whole entry): as the sequence (Q96SW2 whole entry) above
T2 sequence (Q16531 whole entry partner): as the sequence (Q16531 whole entry partner) above
Sequence of GSPT1 (P15170 whole entry): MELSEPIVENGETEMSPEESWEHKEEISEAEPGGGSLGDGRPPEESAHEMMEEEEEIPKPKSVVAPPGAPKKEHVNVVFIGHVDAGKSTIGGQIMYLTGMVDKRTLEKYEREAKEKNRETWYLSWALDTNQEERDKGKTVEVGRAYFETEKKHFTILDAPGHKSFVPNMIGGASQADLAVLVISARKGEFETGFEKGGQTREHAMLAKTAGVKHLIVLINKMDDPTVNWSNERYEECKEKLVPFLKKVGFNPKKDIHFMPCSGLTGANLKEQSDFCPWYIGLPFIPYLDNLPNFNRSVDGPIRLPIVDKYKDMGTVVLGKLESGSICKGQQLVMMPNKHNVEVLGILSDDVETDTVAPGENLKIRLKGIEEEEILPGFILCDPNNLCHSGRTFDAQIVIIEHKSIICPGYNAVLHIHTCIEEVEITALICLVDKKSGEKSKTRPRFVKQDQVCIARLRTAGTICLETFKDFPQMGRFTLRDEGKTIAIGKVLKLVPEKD
Sequence of GSPT1 (Q96SW2 whole entry): as the sequence (Q96SW2 whole entry) above
Sequence of GSPT1 (Q16531 whole entry partner): as the sequence (Q16531 whole entry partner) above

Compound: O=C1CCC(N2Cc3cc(NC(=O)C4=Cc5ccccc5OC4)ccc3C2=O)C(=O)N1 (stereo not drawn) [DEG-52, N-(2-(2,6-dioxopiperidin-3-yl)-1-oxoisoindolin-5-yl)-2H-chromene-3-carboxamide]
IKZF1% degradation at 100 nM [1]: 15.2 ± 0.2%
IKZF1% degradation at 1 μM [1]: 29.2 ± 0.5%
IKZF2% degradation at 100 nM [2]: 83.9 ± 0.4%
IKZF2% degradation at 1 μM [2]: 93.8 ± 0.1%
CK1α % degradation at 100 nM [3]: 68.4 ± 0.2%
CK1α % degradation at 1 μM [3]: 72.8 ± 0.1%
degradation activity for CK1α and/or IKZF2, while sparing IKZF1 and/or GSPT1 (in words) [4]: good degradation activity
GSPT1% degradation at 100 nM [5]: 10.5 ± 1.7%
GSPT1% degradation at 1 μM [5]: 12.2 ± 1.9%

Compound: O=C1CCC(N2Cc3cc(NC(=O)c4cccc(Oc5ccccc5)c4)ccc3C2=O)C(=O)N1 (stereo not drawn) [DEG-55, N-(2-(2,6-dioxopiperidin-3-yl)-1-oxoisindolin-5-yl)-3-phenoxybenzamide]
IKZF1% degradation at 100 nM [1]: 62.1 ± 0.2%
IKZF1% degradation at 1 μM [1]: 86.8 ± 0.4%
IKZF2% degradation at 100 nM [2]: 73.9 ± 0.4%
IKZF2% degradation at 1 μM [2]: 91.1 ± 0.1%
CK1α % degradation at 100 nM [3]: 57.6 ± 1.7%
CK1α % degradation at 1 μM [3]: 67.4 ± 1.4%
degradation activity for CK1α and/or IKZF2, while sparing IKZF1 and/or GSPT1 (in words) [4]: good degradation activity
GSPT1% degradation at 100 nM [5]: 8.8 ± 0.8%
GSPT1% degradation at 1 μM [5]: 14 ± 1.8%

Compound: CC(=O)N1CCC[C@H]1C(=O)Nc1ccc2c(c1)CN(C1CCC(=O)NC1=O)C2=O (stereo partly drawn) [DEG-96, (2S)-1-acetyl-N-(2-(2,6-dioxopiperidin-3-yl)-1-oxoisoindolin-5-yl)pyrrolidine-2-carboxamide]
IKZF1% degradation at 100 nM [1]: 3.6%
IKZF1% degradation at 1 μM [1]: 5.0%
Dmax ([1]; Table 3): 8.3%
IKZF2% degradation at 100 nM [2]: 21.4%
IKZF2% degradation at 1 μM [2]: 57.0%
Dmax [2]: 79.5%
DC50 [2]: 340 nM
CK1α % degradation at 100 nM [3]: 9.2%
CK1α % degradation at 1 μM [3]: 26.3%
Dmax [3]: 40.3%
DC50 [3]: 503 nM
solubility [6]: > 100 mM
GSPT1% degradation at 100 nM [5]: 8.6%
GSPT1% degradation at 1 μM [5]: 10.1%
Dmax ([5]; Table 3): 14.2%

Compound: CN1C(=O)CCc2cc(C(=O)Nc3ccc4c(c3)CN(C3CCC(=O)NC3=O)C4=O)ccc21 (stereo not drawn) [DEG-97, N-(2-(2,6-dioxopiperidin-3-yl)-1-oxoisoindolin-5-yl)-1-methyl-2-oxo-1,2,3,4-tetrahydroquinoline-6-carboxamide]
IKZF1% degradation at 100 nM [1]: 2.4%
IKZF1% degradation at 1 μM [1]: 4.1%
Dmax ([1]; Table 3): 13.1%
IKZF2% degradation at 100 nM [2]: 52.6%
IKZF2% degradation at 1 μM [2]: 87.1%
Dmax [2]: 95.9%
DC50 [2]: 83.1 nM
CK1α % degradation at 100 nM [3]: 60.1%
CK1α % degradation at 1 μM [3]: 74.1%
Dmax [3]: 78%
DC50 [3]: 32 nM
solubility [6]: > 100 mM
GSPT1% degradation at 100 nM [5]: 1.6%
GSPT1% degradation at 1 μM [5]: −3.4%
Dmax ([5]; Table 3): 5.6%

Compound: C[C@H](NC(=O)c1ccccc1)C(=O)Nc1ccc2c(c1)CN(C1CCC(=O)NC1=O)C2=O (stereo partly drawn) [DEG-98, N-((2S)-1-((2-(2,6-dioxopiperidin-3-yl)-1-oxoisoindolin-5-yl)amino)-1-oxopropan-2-yl)benzamide]
IKZF1% degradation at 100 nM [1]: 50.9%
IKZF1% degradation at 1 μM [1]: 79.7%
Dmax ([1]; Table 3): 88%
DC50 ([1]; Table 3): 72 nM
IKZF2% degradation at 100 nM [2]: 35.8%
IKZF2% degradation at 1 μM [2]: 68.1%
Dmax [2]: 80.5%
DC50 [2]: 143 nM
CK1α % degradation at 100 nM [3]: 18.2%
CK1α % degradation at 1 μM [3]: 41.2%
Dmax [3]: 54.1%
DC50 [3]: 175 nM
solubility [6]: > 100 mM
GSPT1% degradation at 100 nM [5]: 5.5%
GSPT1% degradation at 1 μM [5]: 6.2%
Dmax ([5]; Table 3): 0%

Now from value to compound:

IKZF1% degradation at 100 nM [1]: 8.5%
IKZF1% degradation at 1 μM [1]: 14.4%
Dmax ([1]; Table 3): 20.6%
IKZF2% degradation at 100 nM [2]: 89.4%
IKZF2% degradation at 1 μM [2]: 95.3%
Dmax [2]: 96.6%
DC50 [2]: 7 nM
CK1α % degradation at 100 nM [3]: 74.6%
CK1α % degradation at 1 μM [3]: 80.3%
Dmax [3]: 81.2%
DC50 [3]: 2.6 nM
solubility [6]: > 100 mM
GSPT1% degradation at 100 nM [5]: 9.7%
GSPT1% degradation at 1 μM [5]: 11.5%
Dmax ([5]; Table 3): 14.8%
Compound: N#Cc1ccc2cc(C(=O)Nc3ccc4c(c3)CN(C3CCC(=O)NC3=O)C4=O)ccc2c1 (stereo not drawn) [DEG-91, 6-cyano-N-(2-(2,6-dioxopiperidin-3-yl)-1-oxoisoindolin-5-yl)-2-naphthamide]

IKZF1% degradation at 100 nM [1]: 6.7%
IKZF1% degradation at 1 μM [1]: 8.3%
Dmax ([1]; Table 3): 14.5%
IKZF2% degradation at 100 nM [2]: 87.6%
IKZF2% degradation at 1 μM [2]: 94.5%
Dmax [2]: 95.9%
DC50 [2]: 7.9 nM
CK1α % degradation at 100 nM [3]: 76.2%
CK1α % degradation at 1 μM [3]: 80.1%
Dmax [3]: 80.2%
DC50 [3]: 2.9 nM
solubility [6]: > 100 mM
GSPT1% degradation at 100 nM [5]: 5.3%
GSPT1% degradation at 1 μM [5]: 5.0%
Dmax ([5]; Table 3): 12.8%
Compound: COCOc1ccc2cc(C(=O)Nc3ccc4c(c3)CN(C3CCC(=O)NC3=O)C4=O)ccc2c1 (stereo not drawn) [DEG-92, N-(2-(2,6-dioxopiperidin-3-yl)-1-oxoisoindolin-5-yl)-6-(methoxymethoxy)-2-naphthamide]

IKZF1% degradation at 100 nM [1]: 4.9%
IKZF1% degradation at 1 μM [1]: 7.0%
Dmax ([1]; Table 3): 10.4%
IKZF2% degradation at 100 nM [2]: 56.0%
IKZF2% degradation at 1 μM [2]: 87.7%
Dmax [2]: 95.1%
DC50 [2]: 73.1 nM
CK1α % degradation at 100 nM [3]: 60.2%
CK1α % degradation at 1 μM [3]: 74.6%
Dmax [3]: 78.9%
DC50 [3]: 21.1 nM
GSPT1% degradation at 100 nM [5]: 7.8%
GSPT1% degradation at 1 μM [5]: 10.6%
Dmax ([5]; Table 3): 14.6%
Compound: CS(=O)(=O)c1ccc2cc(C(=O)Nc3ccc4c(c3)CN(C3CCC(=O)NC3=O)C4=O)ccc2c1 (stereo not drawn) [DEG-93, N-(2-(2,6-dioxopiperidin-3-yl)-1-oxoisoindolin-5-yl)-6-(methylsulfonyl)-2-naphthamide]

IKZF1% degradation at 100 nM [1]: 8.7%
IKZF1% degradation at 1 μM [1]: 20.8%
Dmax ([1]; Table 3): 30.5%
IKZF2% degradation at 100 nM [2]: 51.8%
IKZF2% degradation at 1 μM [2]: 85.2%
Dmax [2]: 92.8%
DC50 [2]: 78.8 nM
CK1α % degradation at 100 nM [3]: 51.3%
CK1α % degradation at 1 μM [3]: 71.5%
Dmax [3]: 76.7%
DC50 [3]: 42.5 nM
GSPT1% degradation at 100 nM [5]: 9.3%
GSPT1% degradation at 1 μM [5]: 13.2%
Dmax ([5]; Table 3): 13.7%
Compound: CN1C(=O)COc2cc(C(=O)Nc3ccc4c(c3)CN(C3CCC(=O)NC3=O)C4=O)ccc21 (stereo not drawn) [DEG-94, N-(2-(2,6-dioxopiperidin-3-yl)-1-oxoisoindolin-5-yl)-4-methyl-3-oxo-3,4-dihydro-2H-benzo[b][1,4]oxazine-7-carboxamide]

IKZF1% degradation at 100 nM [1]: 7.7%
IKZF1% degradation at 1 μM [1]: 9.1%
Dmax ([1]; Table 3): 17.2%
IKZF2% degradation at 100 nM [2]: 86.7%
IKZF2% degradation at 1 μM [2]: 94.1%
Dmax [2]: 95.4%
DC50 [2]: 10.4 nM
CK1α % degradation at 100 nM [3]: 76.5%
CK1α % degradation at 1 μM [3]: 80.1%
Dmax [3]: 78.9%
DC50 [3]: 2.8 nM
solubility [6]: > 100 mM
GSPT1% degradation at 100 nM [5]: 16.3%
GSPT1% degradation at 1 μM [5]: 24.8%
Dmax ([5]; Table 3): 33.5%
DC50 ([5]; Table 3): 1190 nM
Compound: CSc1ccc2cc(C(=O)Nc3ccc4c(c3)CN(C3CCC(=O)NC3=O)C4=O)ccc2c1 (stereo not drawn) [DEG-95, N-(2-(2,6-dioxopiperidin-3-yl)-1-oxoisoindolin-5-yl)-6-(methylthio)-2-naphthamide]
